Among the data in ChEMBL document CHEMBL1123473, “4,5-Disubstituted primaquine analogues as potential antimalarial agents” (1986) are Cures and Relapses values, retold here.

The test system of assay [1] is Plasmodium cynomolgi. Description: Antimalarial activity against Plasmodium cynomolgi in rhesus monkey 0.316 mg/kg; 0 of 1. It is filed as functional.
Assay [2] has as its system Plasmodium cynomolgi. Kind of assay: Antimalarial activity against Plasmodium cynomolgi in rhesus monkey 1.0 mg/kg; 1 of 2. The format is functional.
Assay [3] deals with Plasmodium cynomolgi. Kind of assay: Antimalarial activity against Plasmodium cynomolgi in rhesus monkey at a dose 0.1 mg/kg; 0 of 1. It is filed as functional.
For assay [4], the system named is Rhesus monkey. Description: Number of days between the end of the treatment and relapse was reported at a dose 0.316 mg/kg. It is filed as functional, Cercopithecidae.
For assay [5], the system named is Rhesus monkey. Description: Number of days between the end of the treatment and relapse was reported at a dose 1.0 mg/kg. It is filed as functional, Cercopithecidae.
Assay [6] deals with Rhesus monkey. Description: Number of days between the end of the treatment and relapse was reported at a dose 0.1 mg/kg. The format is functional, Cercopithecidae.
Assay [7] has as its system Plasmodium cynomolgi. Kind of assay: Antimalarial activity against Plasmodium cynomolgi in rhesus monkey 0.316 mg/kg; 1 of 2. It is filed as functional.
Assay [8] concerns Plasmodium cynomolgi. Description: Antimalarial activity against Plasmodium cynomolgi in rhesus monkey 1.0 mg; 2 of 2. The format is functional.
Assay [9] concerns Plasmodium cynomolgi. Kind of assay: Antimalarial activity against Plasmodium cynomolgi in rhesus monkey at a dose 0.1 mg/kg; 0 of 2. The format is functional.
Assay [10] relates to Plasmodium cynomolgi. Description: Antimalarial activity against Plasmodium cynomolgi infected Rhesus monkeys (Macaca mulatta) at 0.0625 mg/kg dose; cured 0 of 2. The format is functional.
For assay [11], the system named is Plasmodium cynomolgi. Kind of assay: Antimalarial activity against Plasmodium cynomolgi in rhesus monkey at a dose 0.125 mg/kg; 2 of 2. The format is functional.
Assay [12] deals with Plasmodium cynomolgi. Kind of assay: Antimalarial activity against Plasmodium cynomolgi infected rhesus monkey at 0.25 mg/kg; 2 of 2. The format is functional.
For assay [13], the system named is Plasmodium cynomolgi. Kind of assay: Antimalarial activity against Plasmodium cynomolgi infected rhesus monkey at 0.5 mg/kg dose; 1 of 1. It is filed as functional.
The subject of assay [14] is Plasmodium cynomolgi. Description: Antimalarial activity against Plasmodium cynomolgi in rhesus monkey 1.0 mg/kg; 0 of 1. The format is functional.
Assay [15] deals with Plasmodium cynomolgi. Description: Antimalarial activity against Plasmodium cynomolgi in rhesus monkey 1.0 mg/kg; 0 of 2. The format is functional.
Assay [16] deals with Plasmodium cynomolgi. Description: Antimalarial activity against Plasmodium cynomolgi infected rhesus monkey at 0.25 mg/kg dose; 0 of 6. The format is functional.
Assay [17] relates to Plasmodium cynomolgi. Kind of assay: Antimalarial activity against Plasmodium cynomolgi infected rhesus monkey at 0.5 mg/kg dose; cured 4 of 6. It is filed as functional.
Assay [18] relates to Plasmodium cynomolgi. Description: Antimalarial activity against Plasmodium cynomolgi infected rhesus monkey at 0.75 mg/kg dose; 4 of 6. The format is functional.

The structures appear in SMILES notation.

As for `C=Cc1ccnc2c(NC(C)CCCN)cc(OC)c(OC)c12` (centres undefined), the Cures is 0 with Plasmodium cynomolgi [1], 1 in the assay with Plasmodium cynomolgi [2] and 0 in the assay on Plasmodium cynomolgi [3]. In addition, the Relapses in the assay on Rhesus monkey [4] was found to be 23; in the assay on Rhesus monkey [5], 27; in the assay with Rhesus monkey [6] it was 9.
Take `COCc1ccnc2c(NC(C)CCCN)cc(OC)c(Oc3cccc(C(F)(F)F)c3)c12` (centres undefined): the Cures in the assay on Plasmodium cynomolgi [7] was 1; in the assay on Plasmodium cynomolgi [8] it was 2; in the assay on Plasmodium cynomolgi [9], 0. The Relapses in the assay with Rhesus monkey [4] is 28; with Rhesus monkey [6], 8.
Consider `COc1cc(NC(C)CCCN)c2nccc(C)c2c1OC` (centres undefined), for which the Cures in the assay with Plasmodium cynomolgi [10] is 0; with Plasmodium cynomolgi [11] it was 2; in the assay on Plasmodium cynomolgi [12] it was 2; with Plasmodium cynomolgi [13] it was 1.
Compound `COc1cc(NC(C)CCCN)c2nccc(COc3cccc(C(F)(F)F)c3)c2c1OC` (centres undefined) came in with a Cures in the assay with Plasmodium cynomolgi [14] of 0. Further, the Relapses in the assay on Rhesus monkey [5] is on record as 12.
In the case of `COc1cc(NC(C)CCCN)c2nccc(COc3cccc(C(F)(F)F)c3)c2c1Oc1cccc(C(F)(F)F)c1` (centres undefined), the Cures with Plasmodium cynomolgi [15] and in the assay on Plasmodium cynomolgi [3] was 0 each time. Besides, the Relapses with Rhesus monkey [5] and in the assay on Rhesus monkey [6] was 11 throughout.
In the case of `COc1cc(NC(C)CCCN)c2ncccc2c1` (centres undefined) [PRIMAQUINE], the Cures is 0 with Plasmodium cynomolgi [16], 4 with Plasmodium cynomolgi [17] and 4 in the assay with Plasmodium cynomolgi [18].
